Read-outs that look alike come from different tables or passages of the source.
Columns and labels:
[1] = biological target: CDK1/Cyclin E1 (Homo sapiens, UniProt P06493); assay: NanoBRET live-cell target engagement, CDK1-NanoLuc/Cyclin E1 in HEK-293; format: binding; conditions: CDK1/E1, read-out: Inhibition at 10µM (%)
[2] = biological target: CDK2/Cyclin E1 (Homo sapiens, UniProt P24941); assay: NanoBRET live-cell target engagement, CDK2-NanoLuc/Cyclin E1 in HEK-293; format: binding; conditions: CDK2/E1, read-out: Inhibition at 10µM (%)
[3] = biological target: CDK3/Cyclin E1 (Homo sapiens, UniProt Q00526); assay: NanoBRET live-cell target engagement, CDK3-NanoLuc/Cyclin E1 in HEK-293; format: binding; conditions: CDK3/E1, read-out: Inhibition at 10µM (%)
[4] = biological target: CDK4/Cyclin D1 (Homo sapiens, UniProt P11802); assay: NanoBRET live-cell target engagement, NanoLuc-CDK4/Cyclin D1 in HEK-293; format: binding; conditions: CDK4/D1, read-out: Inhibition at 10µM (%)
[5] = biological target: CDK5/CDK5R1 (Homo sapiens, UniProt Q00535); assay: NanoBRET live-cell target engagement, CDK5-NanoLuc/CDK5R1 in HEK-293; format: binding; conditions: CDK5/CDK5R1, read-out: Inhibition at 10µM (%)
[6] = biological target: CDK6/Cyclin D1 (Homo sapiens, UniProt Q00534); assay: NanoBRET live-cell target engagement, NanoLuc-CDK6/Cyclin D1 in HEK-293; format: binding; conditions: for inhibition at 10 µM: read-out: Inhibition at 10µM (%)
[7] = biological target: CDK7 (Homo sapiens, UniProt P50613); assay: NanoBRET live-cell target engagement, NanoLuc-CDK7 in HEK-293; format: binding; conditions: CDK7, read-out: Inhibition at 10µM (%)
[8] = biological target: CDK8/Cyclin C (Homo sapiens, UniProt P49336); assay: NanoBRET live-cell target engagement, NanoLuc-CDK8/Cyclin C in HEK-293; format: binding; conditions: CDK8/C, read-out: Inhibition at 10µM (%)
[9] = biological target: CDK9/Cyclin K (Homo sapiens, UniProt P50750); assay: NanoBRET live-cell target engagement, NanoLuc-CDK9/Cyclin K in HEK-293; format: binding; conditions: CDK9/K, read-out: Inhibition at 10µM (%)
[10] = biological target: CDK11B/Cyclin L2 (Homo sapiens, UniProt P21127); assay: NanoBRET live-cell target engagement, CDK11B-NanoLuc/Cyclin L2 in HEK-293; format: binding; conditions: CDK11b/L2, read-out: Inhibition at 10µM (%)
[11] = biological target: CDK12/Cyclin K (Homo sapiens, UniProt Q9NYV4); assay: NanoBRET live-cell target engagement, CDK12-NanoLuc/Cyclin K in HEK-293; format: binding
[12] = biological target: CDK13/Cyclin K (Homo sapiens, UniProt Q14004); assay: NanoBRET live-cell target engagement, CDK13-NanoLuc/Cyclin K in HEK-293; format: binding; conditions: CDK13/K, read-out: Inhibition at 10µM (%)
[13] = biological target: CDK14/Cyclin Y (Homo sapiens, UniProt O94921); assay: NanoBRET live-cell target engagement, CDK14-NanoLuc/Cyclin Y in HEK-293; format: binding; conditions: CDK14/Y, read-out: Inhibition at 10µM (%)
[14] = biological target: CDK15/Cyclin Y (Homo sapiens, UniProt Q96Q40); assay: NanoBRET live-cell target engagement, NanoLuc-CDK15/Cyclin Y in HEK-293; format: binding; conditions: CDK15/Y; for IC50: read-out: IC50; for inhibition at 10 µM: read-out: Inhibition at 10µM (%)
[15] = biological target: CDK16/Cyclin Y (Homo sapiens, UniProt Q00536); assay: NanoBRET live-cell target engagement, CDK16-NanoLuc/Cyclin Y in HEK-293; format: binding; conditions: CDK16/Y; for IC50: read-out: IC50; for inhibition at 10 µM: read-out: Inhibition at 10µM (%)
[16] = biological target: CDK17/Cyclin Y (Homo sapiens, UniProt Q00537); assay: NanoBRET live-cell target engagement, CDK17-NanoLuc/Cyclin Y in HEK-293; format: binding; conditions: CDK17/Y, read-out: Inhibition at 10µM (%)
[17] = biological target: CDK18/Cyclin Y (Homo sapiens, UniProt Q07002); assay: NanoBRET live-cell target engagement, CDK18-NanoLuc/Cyclin Y in HEK-293; format: binding; conditions: CDK18/Y, read-out: Inhibition at 10µM (%)
[18] = biological target: CDK20/Cyclin H (Homo sapiens, UniProt Q8IZL9); assay: NanoBRET live-cell target engagement, NanoLuc-CDK20/Cyclin H in HEK-293; format: binding; conditions: CDK20/H, read-out: Inhibition at 10µM (%)
[19] = biological target: CDK19/Cyclin C (Homo sapiens, UniProt Q9BWU1); assay: NanoBRET live-cell target engagement, NanoLuc-CDK19/Cyclin C in HEK-293; conditions: read-out: Inhibition at 10µM (%), CDK19/C
[20] = biological target: CDK10/Cyclin L2 (Homo sapiens, UniProt Q15131); assay: NanoBRET live-cell target engagement, CDK10-NanoLuc/Cyclin L2 in HEK-293; conditions: read-out: Inhibition at 10µM (%), CDK10/L2

CDK6/Cyclin D1, sequence (Q00534 whole entry): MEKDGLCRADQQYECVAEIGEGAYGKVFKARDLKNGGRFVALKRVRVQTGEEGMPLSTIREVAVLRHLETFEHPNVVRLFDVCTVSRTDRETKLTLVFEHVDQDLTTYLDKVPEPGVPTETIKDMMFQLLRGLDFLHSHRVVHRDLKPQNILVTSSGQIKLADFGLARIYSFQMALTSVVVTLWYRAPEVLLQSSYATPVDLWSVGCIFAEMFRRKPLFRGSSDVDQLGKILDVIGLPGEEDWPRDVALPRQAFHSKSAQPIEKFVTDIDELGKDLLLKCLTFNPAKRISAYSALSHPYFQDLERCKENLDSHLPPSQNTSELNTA
CDK6/Cyclin D1, sequence (P24385 whole entry partner): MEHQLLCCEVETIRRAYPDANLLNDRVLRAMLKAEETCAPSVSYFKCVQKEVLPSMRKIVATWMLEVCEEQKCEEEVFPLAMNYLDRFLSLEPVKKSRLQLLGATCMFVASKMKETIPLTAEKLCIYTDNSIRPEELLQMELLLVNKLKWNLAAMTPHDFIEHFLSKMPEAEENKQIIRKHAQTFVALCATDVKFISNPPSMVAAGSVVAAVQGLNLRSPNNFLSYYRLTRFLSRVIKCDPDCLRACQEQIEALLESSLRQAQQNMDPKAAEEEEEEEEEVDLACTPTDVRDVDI
CDK17/Cyclin Y, sequence (Q00537 whole entry): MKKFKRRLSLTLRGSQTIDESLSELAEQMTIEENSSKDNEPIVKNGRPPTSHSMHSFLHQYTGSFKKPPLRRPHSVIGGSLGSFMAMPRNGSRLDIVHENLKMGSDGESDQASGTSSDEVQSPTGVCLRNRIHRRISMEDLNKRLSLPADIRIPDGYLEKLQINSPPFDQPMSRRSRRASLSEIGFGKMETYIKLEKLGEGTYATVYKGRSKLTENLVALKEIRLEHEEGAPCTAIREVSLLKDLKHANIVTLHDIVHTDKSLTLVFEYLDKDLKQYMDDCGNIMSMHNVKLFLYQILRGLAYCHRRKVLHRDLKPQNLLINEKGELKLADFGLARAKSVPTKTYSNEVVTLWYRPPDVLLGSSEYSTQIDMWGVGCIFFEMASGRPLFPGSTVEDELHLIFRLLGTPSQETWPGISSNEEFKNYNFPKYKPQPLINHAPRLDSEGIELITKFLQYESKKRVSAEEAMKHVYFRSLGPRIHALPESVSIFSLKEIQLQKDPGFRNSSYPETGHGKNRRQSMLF
CDK17/Cyclin Y, sequence (Q8ND76 whole entry partner): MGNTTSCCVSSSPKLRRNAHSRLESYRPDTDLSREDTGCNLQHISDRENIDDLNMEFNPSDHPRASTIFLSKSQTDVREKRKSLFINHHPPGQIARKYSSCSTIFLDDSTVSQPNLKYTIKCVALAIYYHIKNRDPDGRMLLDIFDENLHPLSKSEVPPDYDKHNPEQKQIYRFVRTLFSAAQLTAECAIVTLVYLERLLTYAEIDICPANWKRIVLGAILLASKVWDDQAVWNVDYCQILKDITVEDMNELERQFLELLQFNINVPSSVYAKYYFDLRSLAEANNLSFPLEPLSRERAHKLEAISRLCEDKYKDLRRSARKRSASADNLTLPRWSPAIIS
CDK15/Cyclin Y, sequence (Q96Q40 whole entry): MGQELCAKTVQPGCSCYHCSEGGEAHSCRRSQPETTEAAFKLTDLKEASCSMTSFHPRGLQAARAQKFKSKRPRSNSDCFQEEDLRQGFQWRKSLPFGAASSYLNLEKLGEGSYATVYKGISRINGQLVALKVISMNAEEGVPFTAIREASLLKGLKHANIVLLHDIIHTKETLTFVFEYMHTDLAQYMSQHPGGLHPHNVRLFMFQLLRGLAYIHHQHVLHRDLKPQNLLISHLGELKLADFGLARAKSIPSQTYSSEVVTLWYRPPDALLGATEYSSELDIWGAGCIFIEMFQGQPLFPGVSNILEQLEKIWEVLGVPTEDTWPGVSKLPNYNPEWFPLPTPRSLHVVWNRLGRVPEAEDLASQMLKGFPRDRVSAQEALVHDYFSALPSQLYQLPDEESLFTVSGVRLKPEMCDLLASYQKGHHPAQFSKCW
CDK15/Cyclin Y, sequence (Q8ND76 whole entry partner): as the sequence (Q8ND76 whole entry partner) above
CDK5/CDK5R1, sequence (Q00535 whole entry): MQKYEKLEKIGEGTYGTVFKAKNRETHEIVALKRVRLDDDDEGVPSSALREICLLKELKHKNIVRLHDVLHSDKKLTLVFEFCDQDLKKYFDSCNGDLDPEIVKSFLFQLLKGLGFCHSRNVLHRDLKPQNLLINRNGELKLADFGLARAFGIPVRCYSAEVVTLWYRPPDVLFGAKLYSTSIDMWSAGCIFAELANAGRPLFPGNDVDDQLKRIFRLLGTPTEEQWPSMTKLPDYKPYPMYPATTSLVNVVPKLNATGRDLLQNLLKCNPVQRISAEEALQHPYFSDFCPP
CDK5/CDK5R1, sequence (Q15078 whole entry partner): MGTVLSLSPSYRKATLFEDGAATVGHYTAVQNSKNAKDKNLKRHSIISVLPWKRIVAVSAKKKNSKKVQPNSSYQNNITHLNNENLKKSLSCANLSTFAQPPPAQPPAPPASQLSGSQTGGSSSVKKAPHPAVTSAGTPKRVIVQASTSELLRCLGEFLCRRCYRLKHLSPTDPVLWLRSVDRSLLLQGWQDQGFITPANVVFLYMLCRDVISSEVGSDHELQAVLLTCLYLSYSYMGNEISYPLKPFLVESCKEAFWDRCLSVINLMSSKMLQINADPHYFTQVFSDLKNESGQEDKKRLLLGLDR
CDK12/Cyclin K, sequence (Q9NYV4 1-1481 isoform Q9NYV4-2): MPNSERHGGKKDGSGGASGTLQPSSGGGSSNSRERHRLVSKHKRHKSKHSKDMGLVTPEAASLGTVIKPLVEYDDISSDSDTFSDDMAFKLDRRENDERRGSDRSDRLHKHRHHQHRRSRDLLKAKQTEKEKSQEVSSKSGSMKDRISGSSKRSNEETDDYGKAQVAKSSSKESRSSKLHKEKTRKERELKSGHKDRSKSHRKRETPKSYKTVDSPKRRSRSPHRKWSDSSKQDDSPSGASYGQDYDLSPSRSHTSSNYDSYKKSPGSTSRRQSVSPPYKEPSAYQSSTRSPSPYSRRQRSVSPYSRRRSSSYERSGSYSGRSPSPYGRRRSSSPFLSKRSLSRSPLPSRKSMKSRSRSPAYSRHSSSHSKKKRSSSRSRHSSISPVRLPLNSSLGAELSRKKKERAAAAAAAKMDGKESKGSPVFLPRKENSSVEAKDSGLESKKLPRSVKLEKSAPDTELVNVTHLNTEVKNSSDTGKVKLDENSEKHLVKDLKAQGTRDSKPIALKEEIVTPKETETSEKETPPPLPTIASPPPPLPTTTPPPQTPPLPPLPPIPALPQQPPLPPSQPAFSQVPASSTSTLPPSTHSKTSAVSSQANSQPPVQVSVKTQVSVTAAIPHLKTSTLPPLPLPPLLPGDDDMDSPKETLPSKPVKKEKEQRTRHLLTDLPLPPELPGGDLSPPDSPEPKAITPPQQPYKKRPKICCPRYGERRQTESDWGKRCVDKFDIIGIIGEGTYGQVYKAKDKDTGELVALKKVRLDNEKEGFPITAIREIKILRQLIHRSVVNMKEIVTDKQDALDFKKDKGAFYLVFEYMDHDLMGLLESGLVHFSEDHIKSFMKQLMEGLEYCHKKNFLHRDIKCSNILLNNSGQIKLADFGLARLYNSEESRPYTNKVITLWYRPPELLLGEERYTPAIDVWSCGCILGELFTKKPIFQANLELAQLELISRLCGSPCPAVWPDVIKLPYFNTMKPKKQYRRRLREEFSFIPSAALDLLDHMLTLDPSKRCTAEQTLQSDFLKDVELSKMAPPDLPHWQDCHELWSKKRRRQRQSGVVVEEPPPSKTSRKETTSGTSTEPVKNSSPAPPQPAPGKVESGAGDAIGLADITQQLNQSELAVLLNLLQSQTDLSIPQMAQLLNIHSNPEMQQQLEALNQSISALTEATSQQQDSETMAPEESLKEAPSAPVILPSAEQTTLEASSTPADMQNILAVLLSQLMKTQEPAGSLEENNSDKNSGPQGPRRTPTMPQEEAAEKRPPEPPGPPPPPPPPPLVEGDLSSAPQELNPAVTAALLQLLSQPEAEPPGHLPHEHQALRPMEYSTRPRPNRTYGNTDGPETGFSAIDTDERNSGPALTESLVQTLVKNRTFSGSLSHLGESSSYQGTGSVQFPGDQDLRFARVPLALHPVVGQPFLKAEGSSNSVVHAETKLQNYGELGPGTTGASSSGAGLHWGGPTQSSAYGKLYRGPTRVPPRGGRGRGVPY
CDK12/Cyclin K, sequence (O75909 whole entry partner): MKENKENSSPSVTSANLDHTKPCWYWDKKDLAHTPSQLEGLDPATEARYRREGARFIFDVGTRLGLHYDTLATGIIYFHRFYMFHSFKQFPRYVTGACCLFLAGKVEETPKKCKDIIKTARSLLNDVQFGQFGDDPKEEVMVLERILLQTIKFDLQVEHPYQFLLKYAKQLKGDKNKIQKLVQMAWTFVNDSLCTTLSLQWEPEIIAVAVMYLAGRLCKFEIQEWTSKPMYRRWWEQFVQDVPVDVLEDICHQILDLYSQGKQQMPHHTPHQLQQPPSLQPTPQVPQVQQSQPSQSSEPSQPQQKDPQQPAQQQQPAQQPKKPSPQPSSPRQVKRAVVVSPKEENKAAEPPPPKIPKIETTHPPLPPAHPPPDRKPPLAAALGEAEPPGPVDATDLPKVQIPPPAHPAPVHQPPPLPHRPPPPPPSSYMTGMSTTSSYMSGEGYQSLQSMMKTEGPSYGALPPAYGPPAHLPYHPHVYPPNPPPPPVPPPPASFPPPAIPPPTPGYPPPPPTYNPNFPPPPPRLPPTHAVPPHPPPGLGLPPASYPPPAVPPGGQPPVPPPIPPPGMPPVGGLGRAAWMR
CDK7, sequence (P50613 whole entry): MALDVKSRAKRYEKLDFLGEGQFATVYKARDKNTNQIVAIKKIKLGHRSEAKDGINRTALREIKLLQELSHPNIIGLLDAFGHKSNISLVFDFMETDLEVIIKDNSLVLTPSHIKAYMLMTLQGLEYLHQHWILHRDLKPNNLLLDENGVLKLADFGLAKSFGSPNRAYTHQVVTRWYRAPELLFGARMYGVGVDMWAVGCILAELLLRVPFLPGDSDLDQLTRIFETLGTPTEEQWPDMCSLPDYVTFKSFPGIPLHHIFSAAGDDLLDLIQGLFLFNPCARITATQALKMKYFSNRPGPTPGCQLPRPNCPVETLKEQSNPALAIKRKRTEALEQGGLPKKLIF

## CNC(=O)c1nn(C)c2c1C(C)(C)Cc1cnc(Nc3ccc(N4CCN(C)CC4)cc3)nc1-2 [Milciclib]
[1]; average
  inhibition at 10 µM: 61.1%
[1]; experiment 1
  inhibition at 10 µM: 52.9%
[1]; experiment 2
  inhibition at 10 µM: 69.2%
[2]; average
  inhibition at 10 µM: 76.6%
[2]; experiment 1
  inhibition at 10 µM: 75.5%
[2]; experiment 2
  inhibition at 10 µM: 77.7%
[3]; average
  inhibition at 10 µM: 77.7%
[3]; experiment 1
  inhibition at 10 µM: 74.4%
[3]; experiment 2
  inhibition at 10 µM: 80.9%
[4]; average
  inhibition at 10 µM: 98.1%
[4]; experiment 1
  inhibition at 10 µM: 98.8%
[4]; experiment 2
  inhibition at 10 µM: 97.4%
[5]; average
  inhibition at 10 µM: 82.1%
[5]; experiment 1
  inhibition at 10 µM: 77.8%
[5]; experiment 2
  inhibition at 10 µM: 86.4%
[6]; CDK6/D1, average (± SEM where n=3), read-out: IC50
  IC50: 110 ± 20 nM
[6]; CDK6/D1, average
  inhibition at 10 µM: 96.3%
[6]; CDK6/D1, experiment 1, read-out: IC50
  IC50: 110 nM
[6]; CDK6/D1, experiment 1
  inhibition at 10 µM: 96.1%
[6]; CDK6/D1, experiment 2, read-out: IC50
  IC50: 83 nM
[6]; CDK6/D1, experiment 2
  inhibition at 10 µM: 96.5%
[6]; CDK6/D1, experiment 3, read-out: IC50
  IC50: 144 nM
[6]; live HEK-293, 2 h, mean ± S.E.M. (n=3) or mean (n=2), read-out: IC50 for CDK/cyclin complexes, CDK6/D1
  IC50: 110 ± 20 nM
[7]; average
  inhibition at 10 µM: 92.1%
[7]; experiment 1
  inhibition at 10 µM: 89.4%
[7]; experiment 2
  inhibition at 10 µM: 94.8%
[8]; average
  inhibition at 10 µM: 16%
[8]; experiment 1
  inhibition at 10 µM: 44.2%
[8]; experiment 2
  inhibition at 10 µM: -12.1%
[9]; average
  inhibition at 10 µM: 55.3%
[9]; experiment 1
  inhibition at 10 µM: 50.1%
[9]; experiment 2
  inhibition at 10 µM: 60.5%
[10]; average
  inhibition at 10 µM: 14.4%
[10]; experiment 1
  inhibition at 10 µM: 14.6%
[10]; experiment 2
  inhibition at 10 µM: 14.3%
[11]; CDK12/K, experiment 1, read-out: Inhibition at 10µM (%)
  inhibition at 10 µM: 16.8%
[11]; CDK12/K, experiment 2, read-out: Inhibition at 10µM (%)
  inhibition at 10 µM: 10.6%
[11]; read-out: Inhibition at 10µM (%), CDK12/K, average
  inhibition at 10 µM: 13.7%
[12]; average
  inhibition at 10 µM: 13.7%
[12]; experiment 1
  inhibition at 10 µM: 15%
[12]; experiment 2
  inhibition at 10 µM: 12.5%
[13]; average
  inhibition at 10 µM: 74.3%
[13]; experiment 1
  inhibition at 10 µM: 71.9%
[13]; experiment 2
  inhibition at 10 µM: 76.8%
[14]; average (± SEM where n=3)
  IC50: 880 ± 60 nM
[14]; average
  inhibition at 10 µM: 86%
[14]; experiment 1
  IC50: 970 nM
  inhibition at 10 µM: 83.8%
[14]; experiment 2
  IC50: 898 nM
  inhibition at 10 µM: 88.1%
[14]; experiment 3
  IC50: 778 nM
[15]; average (± SEM where n=3)
  IC50: 300 ± 40 nM
[15]; experiment 1
  IC50: 383 nM
  inhibition at 10 µM: 86.4%
[15]; experiment 2
  IC50: 260 nM
  inhibition at 10 µM: 90.1%
[15]; experiment 3
  IC50: 273 nM
[16]; average
  inhibition at 10 µM: 87.8%
[16]; experiment 1
  inhibition at 10 µM: 86.7%
[16]; experiment 2
  inhibition at 10 µM: 88.9%
[17]; average
  inhibition at 10 µM: 84.2%
[17]; experiment 1
  inhibition at 10 µM: 83.1%
[17]; experiment 2
  inhibition at 10 µM: 85.3%
[18]; experiment 1
  inhibition at 10 µM: 50.1%
[18]; experiment 2
  inhibition at 10 µM: 36.3%
[19]; average
  inhibition at 10 µM: 19.2%
[19]; experiment 1
  inhibition at 10 µM: 44.9%
[19]; experiment 2
  inhibition at 10 µM: -6.6%
[20]; average
  inhibition at 10 µM: 30.6%
[20]; experiment 1
  inhibition at 10 µM: 32.3%
[20]; experiment 2
  inhibition at 10 µM: 28.9%

From publication PMC7265341, “Quantifying CDK inhibitor selectivity in live cells” (Nature Communications, 2020)
